From patent publication US10517889B2, “Modulators of SMAD7 expression” (Ionis Pharmaceuticals, Inc., priority 2017, dated 2019)
pIC50: −log10 of the molar value. Strand notation (5' to 3'): a small letter for the sugar, then the base; units joined by * are phosphorothioate-linked, units joined directly phosphodiester-linked; [ ] holds rarer units or linkages, { } end groups; capitals alone tell only the bases. e = 2'-O-(2-methoxyethyl) (MOE); [5mC] = 5-methylcytosine; d = 2'-deoxy (DNA)

How the values were obtained:
[1] = test system: human SMAD7 mRNA; test: Antisense inhibition of human SMAD7 mRNA expression in Hep3B cells by 5-10-5 MOE gapmers, single concentration, electroporation, RT-PCR (Example 1, Study 1 and 2); assay type: cell-based; settings: for % Inhibition of SMAD7 mRNA: electroporation with 15,000 nM antisense oligonucleotide (Study 2); for % Inhibition: Study 2, electroporation with 15,000 nM antisense oligonucleotide
Procedure, shortened: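 Hep3B cells (20,000/well) electroporated with 5-10-5 MOE gapmer at 5,000 nM or 15,000 nM for approximately 24 h. SMAD7 mRNA quantified by real-time PCR with primer probe set RTS5062 and normalized to RIBOGREEN total RNA. Values are percent inhibition relative to untreated controls.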

[2] = test system: human SMAD7 mRNA; test: Dose-dependent inhibition of human SMAD7 mRNA expression in Hep3B cells (Example 3, Study 1 and 2); assay type: cell-based; settings: electroporation; for % inhibition of SMAD7 mRNA expression: approximately 16 hours; for pIC50: Study 1 (312.5-20000 nM)
Procedure, shortened: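 Hep3B cells, 20,000 per well, electroporated with antisense oligonucleotide at 0.31, 1.25, 5.00 or 20.00 μM (first series) or 0.74, 2.22, 6.67 or 20.00 μM (second series). After ~16 h, SMAD7 mRNA measured by RT-qPCR (RTS5062), normalised to RIBOGREEN total RNA. Percent inhibition vs untreated cells; IC50 derived.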

[3] = 5-10-5 MOE gapmers targeting SEQ ID NO: 1 and 2
[4] = electroporation, 15,000 nM antisense oligonucleotide (Study 2), 5-10-5 MOE gapmers targeting SEQ ID NO: 1 and 2
[5] = 312.5 nM, Study 1, relative to untreated control cells
[6] = electroporation, 5,000 nM, approximately 24 hours, relative to untreated control cells, gapmers targeting SEQ ID NO: 1 and 2
[7] = electroporation, 15,000 nM, approximately 24 hours, relative to untreated control cells, gapmers targeting SEQ ID NO: 1 and 2

Substance | % inhibition of SMAD7 mRNA expression [1, 4] | % inhibition of SMAD7 mRNA expression [2, 5] | % inhibition of SMAD7 mRNA expression ([2]; 1250.0 nM, Study 1) | % inhibition of SMAD7 mRNA expression ([2]; 5000.0 nM, Study 1) | % inhibition of SMAD7 mRNA expression ([2]; 20000.0 nM, Study 1) | pIC50 [2] | % Inhibition [1, 3] | also measured
278478 (antisense eA*e[5mC]*eA*eT*eG*dA*d[5mC]*d[5mC]*dT*d[5mC]*d[5mC]*dG*d[5mC]*dA*d[5mC]*eA*e[5mC]*e[5mC]*eA*eT) [compound 278478] | 18% | 0% | 9% | 19% | 22% | < 4.70 | – | % Inhibition of SMAD7 mRNA [1, 3]: 54%
483663 (antisense e[5mC]*eA*eG*e[5mC]*e[5mC]*dT*d[5mC]*dT*dT*dG*dA*d[5mC]*dT*dT*d[5mC]*e[5mC]*eG*eA*eG*eG) [compound 483663] | 41% | 0% | 0% | 14% | 27% | < 4.70 | 56% | % Inhibition of SMAD7 mRNA [1, 3]: 35%; % inhibition of SMAD7 mRNA expression [1, 6]: 47%; % inhibition of SMAD7 mRNA expression [1, 7]: 49%
771345 (antisense eA*e[5mC]*eA*eG*e[5mC]*dA*dT*d[5mC]*dT*dG*dG*dA*d[5mC]*dA*dG*eT*e[5mC]*eA*eG*eT) [compound 771345] | – | 6% | 19% | 49% | 69% | 5.22 | – | % inhibition of SMAD7 mRNA expression ([1]; electroporation, 15,000 nM, approximately 24 hours, gapmers targeting SEQ ID NO: 3 and 4): 54%
771386 (antisense e[5mC]*eT*eG*eG*eA*d[5mC]*dA*dG*dT*d[5mC]*dT*dG*d[5mC]*dT*dG*eT*eG*eG*eA*eT) [compound 771386] | – | 9% | 3% | 25% | 60% | 4.72 | 57% | –
771387 (antisense eA*eG*e[5mC]*eA*eT*d[5mC]*dT*dG*dG*dA*d[5mC]*dA*dG*dT*d[5mC]*eT*eG*e[5mC]*eT*eG) [compound 771387] | 6% | 8% | 13% | 28% | 70% | 5.00 | – | % Inhibition of SMAD7 mRNA [1, 3]: 59%
771390 (antisense e[5mC]*eG*eG*e[5mC]*eT*dG*d[5mC]*d[5mC]*d[5mC]*d[5mC]*dA*d[5mC]*d[5mC]*d[5mC]*d[5mC]*eG*e[5mC]*eG*e[5mC]*eG) [compound 771390] | – | 0% | 12% | 26% | 51% | < 4.70 | 66% | % inhibition of SMAD7 mRNA expression [1, 6]: 32%
771397 (antisense eG*eA*eG*e[5mC]*eG*dG*d[5mC]*dG*dG*d[5mC]*dG*dG*d[5mC]*d[5mC]*d[5mC]*eG*eA*eG*eG*eG) [compound 771397] | 55% | 0% | 0% | 41% | 51% | 4.82 | – | –
771399 (antisense eG*e[5mC]*e[5mC]*e[5mC]*eG*dG*dG*d[5mC]*dA*dG*dG*dA*dG*d[5mC]*dG*eG*e[5mC]*eG*eG*e[5mC]) [compound 771399] | – | 0% | 6% | 26% | 53% | < 4.70 | 33% | –
771934 (antisense e[5mC]*eT*eG*eG*eA*dA*dA*dG*dG*dA*dA*dG*dA*d[5mC]*dT*e[5mC]*eG*eA*eG*eG) [compound 771934] | – | – | – | – | – | – | 15% | –
771935 (antisense eG*eG*eA*eA*eG*dG*dA*d[5mC]*dA*d[5mC]*dA*dT*dT*dG*dG*e[5mC]*eA*eT*e[5mC]*eA) [compound 771935] | – | – | – | – | – | – | 23% | –
771936 (antisense eT*eG*eT*eT*eT*d[5mC]*dT*dG*dT*dG*dT*dG*d[5mC]*dA*d[5mC]*eA*eT*eA*e[5mC]*eG) [compound 771936] | 36% | – | – | – | – | – | – | % Inhibition of SMAD7 mRNA [1, 3]: 32%
771938 (antisense e[5mC]*e[5mC]*eT*eT*e[5mC]*d[5mC]*d[5mC]*dA*dA*dA*dT*dG*d[5mC]*d[5mC]*dT*eG*e[5mC]*e[5mC]*e[5mC]*e[5mC]) [compound 771938] | 29% | – | – | – | – | – | – | –
771940 (antisense eT*e[5mC]*e[5mC]*eT*eG*d[5mC]*dT*dG*d[5mC]*d[5mC]*d[5mC]*d[5mC]*dA*dG*d[5mC]*eA*eG*eG*e[5mC]*eT) [compound 771940] | – | – | – | – | – | – | 0% | –
771941 (antisense eT*e[5mC]*eA*eA*eT*dG*dA*dT*dG*dA*dT*dG*dG*dG*dT*eT*eG*e[5mC]*eA*e[5mC]) [compound 771941] | – | – | – | – | – | – | – | % inhibition of SMAD7 mRNA expression [1, 7]: 40%
771942 (antisense eG*eT*e[5mC]*eG*eG*dT*d[5mC]*dA*dG*dG*dG*d[5mC]*d[5mC]*dT*dT*eG*e[5mC]*e[5mC]*e[5mC]*eT) [compound 771942] | – | – | – | – | – | – | 11% | –
771943 (antisense eG*eT*eA*eT*eT*dT*dG*dT*dT*dA*dA*d[5mC]*dA*dA*dA*eA*eA*eT*eG*eG) [compound 771943] | – | – | – | – | – | – | 0% | –
771945 (antisense eT*eT*eA*eT*eG*dT*dG*dT*d[5mC]*dT*d[5mC]*dA*dA*dA*dT*eA*eG*eA*eT*eG) [compound 771945] | 0% | – | – | – | – | – | – | –
771946 (antisense eG*eG*eG*e[5mC]*eT*dA*d[5mC]*d[5mC]*dT*dT*dA*dA*d[5mC]*dA*dA*eA*eG*e[5mC]*eT*eT) [compound 771946] | 47% | – | – | – | – | – | – | –
771948 (antisense e[5mC]*eA*e[5mC]*e[5mC]*e[5mC]*dA*dG*d[5mC]*dT*d[5mC]*dT*d[5mC]*dA*dA*dA*eT*e[5mC]*eA*eG*eT) [compound 771948] | – | – | – | – | – | – | 0% | –
771949 (antisense eA*eG*eA*eT*e[5mC]*dT*dT*dT*d[5mC]*dA*dA*d[5mC]*dT*dG*dG*eA*eT*eG*eG*eA) [compound 771949] | – | – | – | – | – | – | – | % inhibition of SMAD7 mRNA expression [1, 7]: 26%
771950 (antisense eA*eT*eG*e[5mC]*eA*dA*dA*dG*dG*dG*dA*d[5mC]*d[5mC]*d[5mC]*dT*eT*eA*eA*eT*eA) [compound 771950] | – | – | – | – | – | – | 0% | –
771951 (antisense e[5mC]*eT*eG*e[5mC]*eA*dG*dA*dG*d[5mC]*dA*d[5mC]*dA*dG*dA*dT*eG*e[5mC]*eA*eA*eA) [compound 771951] | – | – | – | – | – | – | 9% | –
771952 (antisense eT*e[5mC]*eT*eT*e[5mC]*dT*d[5mC]*dT*dG*d[5mC]*dA*dG*dA*dG*d[5mC]*eA*e[5mC]*eA*eG*eA) [compound 771952] | 0% | – | – | – | – | – | – | % Inhibition of SMAD7 mRNA [1, 3]: 26%
771953 (antisense eT*e[5mC]*eA*e[5mC]*e[5mC]*dA*dG*d[5mC]*dT*d[5mC]*dA*dT*d[5mC]*dT*d[5mC]*eT*e[5mC]*eA*eG*eG) [compound 771953] | 42% | – | – | – | – | – | – | –
771954 (antisense e[5mC]*eT*eA*eG*eA*dA*dT*dG*dA*dA*dG*dA*d[5mC]*dA*d[5mC]*e[5mC]*e[5mC]*eG*e[5mC]*e[5mC]) [compound 771954] | 0% | – | – | – | – | – | – | –
